The assay concerns Aβ production in HEK cells over-expressing mutated β-APP (SFAD). As to the kind of experiment: Aβ production inhibition, sandwich-ELISA in HEK cells, over-expressed mutated β-APP (SE-SFAD). It counts as cell-based, human. Particulars: Homo sapiens, HEK293, HEK cells; for IC50: based on the respective plateau of maximum inhibition; for Emax: maximum inhibition plateau, read-out: SE-SFAD max. inhibition %. On the procedure:
The effect of test substances on the inhibition of Aβ-amyloid production can be measured in the supernatant of cell cultures of β-APP expressed cells using ELISA tests or other quantitative determination methods for β-APP degradation products. Typically, 8×10^5 cells (e.g. HEK cells, which express recombinant human β-APP variants) are plated out in each well of a culture dish having 24 wells in growth media such as e.g. OPTIMEM (Gibco) and the test compound is then added. After an incubation period of 24 to 48 hours at 37° C. in a 10% CO2 atmosphere the supernatant is removed from the cell cultures and the β-APP degradation products (e.g. Aβ or β-[…]) are determined with the aid of ELISA (or sandwich ELISA) analysis or by means of quantitative immunoprecipitation (after metabolic radiolabelling of the cell proteins). Typically, 300 μl of the cell supernatant are tested according to the state of the art for ELISA tests in culture dishes having 96 wells. In the case of sandwich ELISA for Aβ, the binding antibody can be directed against the first 16 amino acids of Aβ-peptide (e.g. 6E10 Senetek, Maryland Heights, Mo.) and the detection antibody can be directed against amino acids 17-40 or 17-42 of Aβ and carries a detection system such as e.g. peroxidase. A simple ELISA test with an antibody, e.g. 22C11 (Boehringer Mannheim), can be used as the test for […]; the second antibody can be an anti-(mouse) Ig having a detection system, such as e.g. peroxidase. The peroxidase reaction can be carried out e.g. using a TMB substrate (BioRAD) and the measurements can be carried out at 650 nm using an ELISA reading apparatus. […] SE-SFAD signifies the Aβ production inhibition measured using sandwich-ELISA in HEK cells, SFAD signifies over-expressed mutated β-APP, and SE-WT signifies the Aβ production inhibition measured using sandwich-ELISA in HEK cells which over-express Wild type β-APP. The IC50 values are based on the respective plateau of maximum inhibition.
For orientation: In an ELISA, binding on a coated surface is turned into a signal by an enzyme label.

IC50 and Emax data for 26 compounds are collected here from patent US5869500A, “Pyridone compounds useful in treating Alzheimer's disease” (Hoffmann-La Roche Inc., priority 1996, dated 1999).

Turning to `NC(=O)c1cc(-c2ccccc2)c(=O)n2ccc3ccsc3c12` [Compound 56, 7-Oxo-8-phenyl-7H-thieno[2,3-a]quinolizine-10-carboxylic acid amide], the concentration for half-maximal inhibition (IC50) turned out to be 1000 nM and the Emax was found to be 35%.

`COCCN(C(=O)c1cc(-c2ccc(OCc3ccccc3)cc2)c(=O)n2ccc3ccsc3c12)C(C)C` [Compound 69, 8-(4-Benzyloxy-phenyl)-7-oxo-7H-thieno[2,3-a]quinolizine-10-carboxylic acid isopropyl-(2-methoxy-ethyl)-amide]: the midpoint of inhibition, the IC50, lay at 800 nM and the Emax came to 45%.

`COCCNC(=O)c1cc(-c2ccc(Oc3ccccc3)cc2)c(=O)n2ccc3ccsc3c12` [Compound 98, 7-Oxo-8-(4-phenoxy-phenyl)-7H-thieno[2,3-a]quinolizine-10-carboxylic acid (2-methoxy-ethyl)-amide]: the concentration for half-maximal inhibition (IC50) worked out at 2400 nM and the Emax is 70 to 90%.

For the compound `COCCN(CC1CC1)C(=O)c1cc(-c2ccc(OC)cc2)c(=O)n2ccc3ccsc3c12` [Compound 146, 8-(4-Methoxy-phenyl)-7-oxo-7H-thieno[2,3-a]quinolizine-10-carboxylic acid cyclopropylmethyl-(2-methoxy-ethyl)-amide], the IC50 was 1500 nM and the Emax turned out to be 100%.

Regarding `COCCN(C(=O)c1cc(-c2ccccc2OC)c(=O)n2ccc3ccsc3c12)c1ccccc1` [Compound 121, 8-(2-Methoxy-phenyl)-7-oxo-7H-thieno[2,3-a]quinolizine-10-carboxylic acid (2-methoxy-ethyl)-phenyl-amide], the half-maximal inhibitory concentration (IC50) was found to be 1800 nM and the Emax was found to be 100%.

On to `O=C(NC1CCCCC1O)c1cc(-c2ccccc2)c(=O)n2ccc3ccsc3c12` (stereo not drawn) [Compound 25], for which the 50% inhibitory concentration (IC50) is 10000 nM and the Emax worked out at 100%.

As to `COCCN(C(=O)c1cc(-c2ccc(OCc3ccccc3)cc2)c(=O)n2ccc3c(ncn3C)c12)c1ccccc1` [Compound 102, 8-(4-Benzyloxy-phenyl)-3-methyl-7-oxo-3,7-dihydro-imidazo [4,5-a]quinolizine-10-carboxylic acid (2-methoxy-ethyl)-phenyl-amide], the half-maximal inhibitory concentration (IC50) worked out at 3600 nM and the Emax turned out to be 80%.

In the case of `COC(=O)c1cc(-c2ccccc2)c(=O)n2ccc3ccsc3c12` [Compound 15, Methyl 7-oxo-8-phenyl-7H-thieno[2,3-a]quinolizine-10-carboxylate], the IC50 came to 3000 nM and the Emax worked out at 60%.

For the compound `COCCN(CC1CC1)C(=O)c1cc(-c2ccc(OCc3ccccc3)cc2)c(=O)n2ccc3ccsc3c12` [Compound 70, 8-(4-Benzyloxy-phenyl)-7-oxo-7H-thieno[2,3-a]quinolizine-10-carboxylic acid cyclopropylmethyl-(2-methoxy-ethyl)-amide], the IC50 is under 1000 nM and the Emax was determined as 100%.

For `COCCN(CC1CC1)C(=O)c1cc(-c2ccc(OCc3ccccc3)cc2)c(=O)n2ccc3c(ncn3C)c12` [Compound 104, 8-(4-Benzyloxy-phenyl)-3-methyl-7-oxo-3,7-dihydro-imidazo [4,5-a]-quinolizine-10-carboxylic acid cyclopropylmethyl-(2-methoxy-ethyl)-amide], the half-maximal inhibitory concentration (IC50) was 3000 nM and the Emax came to 100%.

`COCCN(C(=O)c1cc(-c2ccc(OCc3ccccc3)cc2)c(=O)n2ccc3cc(C(=O)N(C)C)sc3c12)c1ccccc1` [Compound 76, 8-(4-Benzyloxy-phenyl)-7-oxo-7H-thieno[2,3-a]quinolizine-2,10-dicarboxylicacid 2-dimethylamide 10-[(2-methoxy-ethyl)-phenyl-amide]]: half-maximal inhibition (IC50) required 2800 nM and the Emax came to 40%.

On to `CCN(CCOC)C(=O)c1cc(-c2ccc(OCc3ccccc3)cc2)c(=O)n2ccc3ccsc3c12` [Compound 68, 8-(4-Benzyloxy-phenyl)-7-oxo-7H-thieno[2,3-a]quinolizine-10-carboxylic acid ethyl-(2-methoxy-ethyl)-amide], for which inhibition was half-maximal at 8000 nM (IC50) and the Emax was found to be 25%.

`COCCN(CCOC)C(=O)c1cc(-c2ccc(OC)cc2)c(=O)n2ccc3ccsc3c12` [Compound 145, 8-(4-Methoxy-phenyl)-7-oxo-7H-thieno[2,3-a]quinolizine-10-carboxylic acid bis-(2-methoxy-ethyl)-amide]: the IC50 was determined as 5000 nM and the Emax was found to be 100%.

With `COCCN(C(=O)c1cc(-c2ccc(Oc3ccccc3)cc2)c(=O)n2ccc3ccsc3c12)c1ccccc1` [Compound 101, 7--Oxo-8-(4-phenoxy-phenyl)-7H-thieno[2,3-a]quinolizine-10-carboxylic acid (2-methoxy-ethyl)-phenyl-amide], it took 900 nM to reach half-maximal inhibition (IC50) and the Emax was 100%.

As for `COCCN(CCOC)C(=O)c1cc(-c2ccc(-c3ccccc3)cc2)c(=O)n2ccc3ccsc3c12` [Compound 95, 8-(Biphenyl-4-yl)-7-oxo-7H-thieno[2,3-a]quinolizine-10-carboxylic acid bis-(2-methoxy-ethyl)-amide], the IC50 was 1300 nM and the Emax was determined as 100%.

`COCCN(C(=O)c1cc(-c2ccccc2N)c(=O)n2ccc3ccsc3c12)c1ccccc1` [Compound 153, 8-(2-Amino-phenyl)-7-oxo-7H-thieno[2,3-a]chinolizine-10-carboxylic acid (2-methoxy-ethyl)-phenyl-amide]: the Emax was 20 to 40%.

On to `COCCN(Cc1ccccc1)C(=O)c1cc(-c2ccc(C(C)(C)C)cc2)c(=O)n2ccc3ccsc3c12` [Compound 113, 8-(4-tert-Butyl-phenyl)-7-oxo-7H-thieno[2,3-a]quinolizine-10-carboxylicacid benzyl-(2-methoxy-ethyl)-amide], for which the IC50 came to 3000 nM and the Emax worked out at 100%.

For the compound `COCCNC(=O)c1cc(-c2ccccc2OC)c(=O)n2ccc3ccsc3c12` [Compound 115, 8-(2-Methoxy-phenyl)-7-oxo-7H-thieno[2,3-a]quinolizine-10-carboxylic acid (2-methoxy-ethyl)-amide], the concentration for half-maximal inhibition (IC50) came to 20000 nM and the Emax turned out to be 50%.

With `COc1ccc(NC(=O)c2cc(-c3ccccc3OC)c(=O)n3ccc4ccsc4c23)cc1` [Compound 142, 8-(2-Methoxy-phenyl)-7-oxo-7H-thieno[2,3-a]quinolizine-10-carboxylic acid (4-methoxy-phenyl)-amide], the IC50 stood at 1500 nM and the Emax lay in the range of 20 to 100%.

Turning to `COc1cccc(-c2cc(C(=O)Nc3ccc(OC)c(OC)c3)c3c4sccc4ccn3c2=O)c1` [Compound 123, 8-(3-Methoxy-phenyl)-7-oxo-7H-thieno[2,3-a]quinolizine-10-carboxylic acid (3,4-dimethoxy-phenyl)-amide], half-maximal inhibition (IC50) required 800 nM and the Emax amounted to 100%.

Regarding `COCCN(CCOC)C(=O)c1cc(-c2ccc(OCc3ccccc3)cc2)c(=O)n2ccc3c(ncn3C)c12` [Compound 103, 8-(4-Benzyloxy-phenyl)-3-methyl-7-oxo-3,7-dihydro-imidazo[4,5-a]-quinolizine-10-carboxylic acid bis-(2-methoxy-ethyl)-amide], the 50% inhibitory concentration (IC50) stood at 5000 nM and the Emax is 35 to 55%.

For `COCCN(C(=O)c1cc(-c2ccc(OCc3ccccc3)cc2)c(=O)n2ccc3ccsc3c12)c1ccccc1` [Compound 72, 8-(4-Benzyloxy-phenyl)-7-oxo-7H-thieno[2,3-a]quinolizine-10-carboxylic acid (2-methoxy-ethyl)-phenyl-amide], the concentration for half-maximal inhibition (IC50) amounted to 500 nM and the Emax was 100%.

`CCOC(=O)c1cc(-c2ccc(C)cc2)c(=O)n2ccc3ccsc3c12` [Compound 151, Ethyl 7-oxo-8-p-tolyl-7H-thieno[2,3-a]quinolizine-10-carboxylate]: the half-inhibitory concentration (IC50) came to 800 nM and the Emax worked out at 100%.

As for `CCN(CCOC)C(=O)c1cc(-c2ccc(OC)cc2)c(=O)n2ccc3ccsc3c12` [Compound 144, 8-(4-Methoxy-phenyl)-7-oxo-7H-thieno[2,3-a]quinolizine-10-carboxylic acid ethyl-(2-methoxy-ethyl)-amide], the half-maximal inhibitory concentration (IC50) stood at 2000 nM and the Emax amounted to 40%.

`CCN(CCOC)C(=O)c1cc(-c2ccc(Oc3ccccc3)cc2)c(=O)n2ccc3ccsc3c12` [Compound 99, 7-Oxo-8-(4-phenoxy-phenyl)-7H-thieno[2,3-a]quinolizine-10-carboxylic acid ethyl-(2-methoxy-ethyl)-amide]: the IC50 came to 2500 nM and the Emax came to 100%.

For the compound `CCCN(CCOC)C(=O)c1cc(-c2ccc(OCc3ccccc3)cc2)c(=O)n2ccc3c(ncn3C)c12` [Compound 105, 8-(4-Benzyloxy-phenyl)-3-methyl-7-oxo-3,7-dihydro-imidazo[4,5-a]-quinolizine-10-carboxylic acid (2-methoxy-ethyl)-propyl-amide], the midpoint of inhibition, the IC50, lay at 5000 nM and the Emax was 50%.

Broadly, the IC50 is the concentration that gives 50% inhibition. Low values mean higher potency, high ones lower potency.
